# How the values were obtained:
# [1] = tested on: airway hyperresponsiveness; settings: multiple antigen challenges, primate model; cited from earlier work
# [2] = molecular target: T1, recombinant human LTA4 hydrolase (rhLTA4H) (Homo sapiens, UniProt P09960); assay: Recombinant human LTA4 hydrolase assay for LTA4 hydrolase inhibitor activity; assay type: biochemical; settings: rhLTA4H, LTB4 by immunoassay; single determination or average of two or more; mark after value = form tested: ′ free base, ″ hydrochloride, ^ formate; read-out: IC50
# T1 construct: made in house; host or cells: Spodoptera frugiperda (Sf-9) cells, baculovirus (pFastBac1)
# T1 sequence (P09960 1-611): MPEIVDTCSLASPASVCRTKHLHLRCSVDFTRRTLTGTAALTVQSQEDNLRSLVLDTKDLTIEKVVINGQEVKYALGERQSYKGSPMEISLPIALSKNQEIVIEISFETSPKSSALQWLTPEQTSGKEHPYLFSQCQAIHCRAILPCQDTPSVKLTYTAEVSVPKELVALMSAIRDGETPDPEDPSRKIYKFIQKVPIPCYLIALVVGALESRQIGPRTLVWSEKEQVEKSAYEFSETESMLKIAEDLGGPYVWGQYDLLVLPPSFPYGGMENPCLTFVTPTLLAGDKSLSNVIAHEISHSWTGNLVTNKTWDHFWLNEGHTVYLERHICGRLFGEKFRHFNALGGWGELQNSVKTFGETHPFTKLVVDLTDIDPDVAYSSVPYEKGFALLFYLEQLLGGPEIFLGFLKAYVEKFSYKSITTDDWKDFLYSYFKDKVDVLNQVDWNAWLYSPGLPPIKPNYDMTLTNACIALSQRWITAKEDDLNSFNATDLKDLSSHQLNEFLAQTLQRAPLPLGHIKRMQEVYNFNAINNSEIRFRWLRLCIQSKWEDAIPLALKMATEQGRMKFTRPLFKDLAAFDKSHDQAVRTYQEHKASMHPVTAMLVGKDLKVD
# In short: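 Baculovirus/Sf-9-expressed human LTA4H (10 ng) was preincubated 10 min at rt with compound in assay buffer (10% DMSO in compound dilution), then reacted 30 min at rt with LTA4 free acid made from its methyl ester. LTB4 produced was measured by ELISA after dilution; IC50 from non-linear regression, single or averaged determinations.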
# [3] = tested on: arachidonic acid-induced neutrophil influx in murine ear tissue; assay: Murine arachidonic acid-induced inflammation model: neutrophil influx (myeloperoxidase) in ear; assay type: in vivo, Balb/c mice; settings: Mus musculus; 30 mg/kg oral gavage, 60 min before topical arachidonic acid, ear biopsy after 3 h; percent inhibition of neutrophil influx; read-out: % Inh. MPO
# [4] = tested on: LTB4 production in murine blood (LTA4H); assay: LTB4 production by calcium ionophore-stimulated murine blood for LTA4H inhibitor activity; assay type: cell-based, CD-1 mice; settings: Mus musculus; murine blood diluted 1 in 15, A23187 stimulated; single determination or average; mark after value = form tested: ′ free base, ″ hydrochloride, ^ formate; read-out: IC50
# In short: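 Heparinized blood from CD-1 mice was preincubated with compound for 15 min at 37° C, then stimulated with calcium ionophore A23187 (final 7 μg/mL) for 30 min. Centrifugation stopped the reaction, and LTB4 in the supernatant was measured by enzyme immunoassay. Values are single determinations or means of two or more.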
# [5] = tested on: ex vivo calcium ionophore-stimulated LTB4 production in whole blood; assay: Murine arachidonic acid-induced inflammation model: ex vivo stimulated LTB4 production in blood; set-up: species or system Balb/c mice; settings: Mus musculus; 30 mg/kg oral gavage; blood diluted 1:1, A23187 stimulated ex vivo; percent inhibition of LTB4 production; read-out: % Inh. LTB4
# [6] = tested on: ionophore-induced LTB4 production; settings: oral administration; cited from earlier work
# [7] = tested on: ionophore-induced LTB4 production; settings: oral administration; cited from earlier work; remark: listed apart in the source
# colitis symptoms = settings: eight weeks of treatment; cited from earlier work
compound,measurement,setting,value
"O=C(O)C1(c2ccc3c(c2)OC[C@H](Cc2ccc(-c4ccccc4)cc2)[C@H]3O)CCCC1 [CP-105,696]",airway hyperresponsiveness,[1],reduced
"NC(=O)N1CC2CCC(C1)N2C(=O)c1coc2cc(Oc3nc4ncccc4s3)ccc12 [Example 374, meso-8-[6-(Thiazolo[4,5-b]pyridin-2-yloxy)-benzofuran-3-carbonyl]-3,8-diaza-bicyclo[3.2.1]octane-3-carboxylic acid amide]",IC50,[2],11 nM
same,inhibition at 30 mg/kg,[3],37%
same,IC50,[4],50 nM
same,inhibition at 30 mg/kg,[5],7%
CN(CCCOc1ccc(Cc2ccccc2)cc1)CCC(=O)O.Cl [SC57461],ionophore-induced LTB4 production in rat peritoneum in vivo,[6],caused inhibition
same,ionophore-induced LTB4 production in mouse blood ex vivo,[7],caused inhibition
same,colitis symptoms,colitis symptoms,significantly improved
